For assay [1], the system named is Human prostate PC3. The assay can be described thus: FGF-induced resistance, inhibition of BrdU incorporation. Type of assay: cell-based. The note with it: cell lines derived from solid tumors; 1 ng/ml r-aFGF plus 1 ng/ml r-bFGF vs 50 ng/ml r-bFGF alone. On the procedure:
Prior to drug treatment, cells were incubated for 4 days with tumor CM or with r-aFGF ad/or r-bFGF-containing medium, supplemented with 1% FBS (final protein concentration adjusted to 2 mg/ml). The medium was renewed every other day.
The antiproliferative drug effect in histocultures was measured as inhibition of ^3H-thymidine incorporation quantified by autoradiography (Yen, W. C. et al. (1996) Pharm. Res. 13:1305-1312) and, for monolayers, as inhibition of BrdU incorporation or as reduction of total proteins by the sulforhodamine B assay (Au, J. L.-S. et al. (1998) Cancer Res. 58:2141-2148). For the latter, the two assays yielded qualitatively similar results. Cell kill induced by 96-hour drug treatment was monitored by the release of LDH into the culture medium. LDH activity was monitored by the conversion of tetrazolium to formazan (detected at 490 nm).
The experimental conditions are described briefly below. Cells were pretreated with human recombinant r-aFGF and/or r-bFGF for 96 hours and then with drugs for 96 hours. For the studies on cells derived from the human prostate, lung, pharynx, colon and breast cancer cells, the drug effect was determined by the inhibition of BrdU incorporation. For the study on the human leukemic cells, the drug effect was measured by the MTT assay, which measures the number of metabolically active cells (Alley, M. C. et al (1988) Cancer Res 48:589-601).
Background: Dividing cells build labelled thymidine or BrdU into new DNA.

For assay [2], the system named is rat MAT-LyLu cells. The assay can be described thus: Restoration of resistance by recombinant FGF in FGF-immunoprecipitated CM. The assay is classed as cell-based. The method, then:
The study was performed using rat MAT-LyLu cells. The reversal in CM-induced resistance was detected by measuring the changes in BrdU incorporation in treated samples relative to control samples. The source of CM was lung histocultures for both aFGF and bFGF experiments. The study used two controls: no CM (left solid curves, empty circles); with CM (right solid curves, empty squares). Upper left: CM minus […] (filled square); CM minus aFGF plus r-aFGF (filled circles, overlaps with the right CM-control curve). Upper right: CM minus bFGF (filled square, overlaps with the left control curve); CM minus bFGF plus r-bFGF (filled circle, overlaps with the right CM control curve). Lower left: Both the CM minus aFGF and bFGF (filled square) and the CM minus aFGF and bFGF plus aFGF (filled circle) curves overlap with the left control curve. Lower center: CM minus aFGF and bFGF (filled square, overlaps with left control curve); CM minus aFGF and bFGF plus r-bFGF (filled circle). Lower right: CM minus aFGF and bFGF (filled square, overlaps with left control curve); CM minus aFGF and bFGF plus r-aFGF and r-bFGF (filled circle, overlaps with the right CM-control curve).
aFGF or bFGF was immunoprecipitated with their respective monoclonal antibody (1 microgram/ml), in the presence of Protein G PLUS/protein A agarose (Oncogene). This procedure reduced the bFGF level in the original CM to below the detection limit of 5 pg/ml by the ELISA (Oncogene), and the aFGF level in the concentrated CM to below the detection limit by Western blotting.
The third study determined whether aFGF and/or bFGF are required for the resistance. Endogenous aFGF and/or bFGF were removed from the active CM by immunoprecipitation, and then reconstituted the CM using recombinant proteins. […] The fifth study confirmed that aFGF and bFGF were the main cause of chemoresistance, by using only r-aFGF and r-bFGF (i.e., without the immunoprecipitated CM) to induce resistance (FIG. 3). When given alone, r-aFGF had no effect whereas r-bFGF induced a concentration-dependent resistance. […]

Assay [3] concerns PC3 tumor cells. The assay can be described thus: Doubling time of exponentially growing cells. Type of assay: cell-based, human. The settings on record: treatment with r-bFGF.
The test system of assay [4] is rat tumor cells. The assay can be described thus: Doubling time of exponentially growing cells. Type of assay: cell-based. The settings on record: treatment with r-bFGF.
Assay [5] has as its system human prostate cancer PC3 cells. The assay can be described thus: Differential display of genes altered by bFGF treatment. The assay is classed as cell-based. On the procedure: Differential display was used to identify the down-stream genes that are involved in the bFGF-induced multidrug resistance. […] By this method, the genes that were altered by bFGF treatment in PC3 cells but not in FaDu cells were identified. The identified genes are likely to be associated with the bFGF-induced multidrug resistance.
For differential display, total RNA was isolated from the cells and reverse-transcripted in single strand cDNA. PCR was performed using a pair of T and P primers. […] Five of these bands were reproducibly altered in PC3 cells, but not in FaDu cells. These bands were cut from the gels, reamplified and cloned into pGEM-T vector. Nine different clones were identified and sequenced. The gene sequence was compared to the data in the NCBI GenBank. […] Primers were synthesized for drug resistant cancer cells. Among the nine clones, five were altered reproducibly by bFGF treatment while bFGF had no effect on the remaining four clones. The expression of two of the known genes, TSC22 and VEGF, were increased by 20 to 40%, whereas the expression of the three new genes (temporarily named FSC-1, FSC-2, and FSC-3) were induced by 65%, 300%, and 40%. TSC22 and VEGF are not known to be regulated by bFGF.

The test system of assay [6] is Human prostate PC3 tumor cells. The assay can be described thus: Drug treatment and extracellular bFGF (ELISA), LDH release, cell number. The settings on record: for Extracellular LDH, % of control / Extracellular bFGF, % of control / Extracellular concentration bFGF / bFGF:LDH ratio: 72 hours. The assay is classed as cell-based. The method, then: The experimental conditions are described briefly below. […] The remaining cell number at the end of treatment was counted using a Coulter counter. The extracellular bFGF concentration was measured using ELISA. The release of lactate dehydrogenase (LDH) into the extracellular culture medium is indicative of cell death and gives a measure of the release of cellular content into the culture medium. If the increase in extracellular bFGF level is due to the release of bFGF upon cell death and lysis, the increase in bFGF will be accompanied by an increase in LDH in the same extent. This would result in an higher bFGF level and a constant bFGF-to-LDH ratio. On the other hand, an increase in extracellular bFGF due to an increase in bFGF production and release of bFGF from cells by processes other than cell lysis will result in an higher bFGF level and an higher bFGF-to-LDH ratio.
(In general: ELISA stands for enzyme-linked immunosorbent assay.)

Assay [7] has as its system Human prostate PC3 tumor cells. The assay can be described thus: aFGF/bFGF-induced resistance and reversal by suramin, sulforhodamine B assay. The assay is classed as cell-based. The note with it: for Resistance, Folds, aFGF 0.3 ng/ml + bFGF 1 ng/ml / Resistance, Folds, aFGF 1 ng/ml + bFGF 3 ng/ml: no suramin, relative to control. The method, then: The experimental conditions are described briefly below. […] Cell number was measured using the sulforhodamine B assay which measures the total protein concentration. […] The FGF-induced resistance was dependent on the FGF concentrations, with a higher resistance at higher FGF concentrations.
In general terms: Sulforhodamine B stains cellular protein and so reports cell mass.

In assay [8] the test system is human leukemic cell line CCRF-CEM. The assay can be described thus: FGF-induced resistance to fludarabine, MTT assay. The settings on record: 96 h, 96 hour treatment, read-out: concentration required to produce 50%. The assay is classed as cell-based.
Setting [9] is: Homo sapiens, read-out: IC50, Control (drug treatment only, without FGF treatment), No suramin, drug 96 hours.
The mark [10] stands for this setting: Homo sapiens, read-out: IC50, aFGF 0.3 ng/ml + bFGF 1 ng/ml, No suramin, FGF pretreatment 96 hours, drug 96 hours.
Setting [11] is: Homo sapiens, read-out: IC50, aFGF 1 ng/ml + bFGF 3 ng/ml, No suramin, FGF pretreatment 96 hours, drug 96 hours.
Setting [12] is: read-out: IC50, Control (without FGF treatment), Suramin, 15 μM, drug 96 hours with 15 μM suramin.
The mark [13] stands for this setting: read-out: IC50, aFGF 0.3 ng/ml + bFGF 1 ng/ml, With suramin, FGF pretreatment 96 hours, drug 96 hours with 15 micromolar suramin.
Where [14] appears, read: read-out: IC50, aFGF 1 ng/ml + bFGF 3 ng/ml, With suramin, FGF pretreatment 96 hours, drug 96 hours with 15 micromolar suramin.

The results in this text go back to patent publication US20040010001A1, “Methods and compositions for modulating cell proliferation and cell death” (priority 1999, published 2004).

Read-outs that look alike come from different tables or passages of the source.

For “r-aFGF: human recombinant aFGF, identical to the 14 kDa human aFGF except for the extra methionine at the amino terminus”, the “amplification of the r-bFGF effect by r-aFGF” value in assay [1] was “more than 50 fold”. Moreover, the induction of resistance result in assay [2] (added to CM depleted of both aFGF and bFGF) is listed as “did not induce resistance”.
“r-bFGF: human recombinant bFGF, identical to the 18 kDa human bFGF except for the extra methionine at the amino terminus”: the “doubling time, unchanged by treatment” value in assay [3] was 24 h; in assay [4], 17 h. For the same compound, in assay [2] (50 ng/ml versus about 0.9 ng/ml), the “concentration needed relative to the endogenous bFGF concentration in the native CM” value amounted to 55 fold. The “concentration of exogenous r-bFGF needed to restore the resistance” value in assay [2] (CM depleted of both aFGF and bFGF) is 50 ng/mL.
Take “bFGF: basic Fibroblast Growth Factor used for treatment of PC3 cells”: in assay [5], the “induction of expression of FSC-1” value is on record as 65%, the “induction of expression of FSC-2” value came out at 300% and the “induction of expression of FSC-3” value is on record as 40%.
For the compound `CC[C@]1(O)C[C@@H]2CN(CCc3c([nH]c4ccccc34)[C@@](C(=O)OC)(c3cc4c(cc3OC)N(C)[C@H]3[C@@](O)(C(=O)OC)[C@H](OC(C)=O)[C@]5(CC)C=CCN6CC[C@]43[C@@H]65)C2)C1` [Vinblastine], the “Remaining cell number at 72 hours (% of control)” value in assay [6] (drug concentration 0.5 NM) was 74%; in assay [6] (drug concentration 1 NM), 43%; in assay [6] (drug concentration 2 NM) it was 17%. Also, the “Remaining cell number at 72 hours × 10^6” value in assay [6] (drug concentration 0.5 NM) is 1.7 × 10^6; in assay [6] (drug concentration 1 NM), 1.0 × 10^6; in assay [6] (drug concentration 2 NM), 0.4 × 10^6. Moreover, the figures for the “Extracellular LDH, % of control” value in assay [6] (drug concentration 0.5 NM), in assay [6] (drug concentration 1 NM) and in assay [6] (drug concentration 2 NM) were 263 % of control, 326 % of control and 513 % of control, respectively. Also, the “Extracellular bFGF, % of control” value was 675 % of control in assay [6] (drug concentration 0.5 NM), 1073 % of control in assay [6] (drug concentration 1 NM) and 2046 % of control in assay [6] (drug concentration 2 NM). Moreover, the “Extracellular concentration bFGF” value in assay [6] (drug concentration 0.5 NM) amounted to 59.1 pg/mL; in assay [6] (drug concentration 1 NM), 94.0 pg/mL; in assay [6] (drug concentration 2 NM), 179 pg/mL. In addition, the “bFGF:LDH ratio” value is 2.57 in assay [6] (drug concentration 0.5 NM), 3.29 in assay [6] (drug concentration 1 NM) and 3.99 in assay [6] (drug concentration 2 NM). For the same compound, the IC50 in assay [7] (setting [9]) amounted to 0.00033 µM; in assay [7] (setting [10]), 0.00045 µM; in assay [7] (setting [11]) it was 0.00078 µM; in assay [7] (setting [12]), 0.0004 µM; in assay [7] (setting [13]), 0.00042 µM; in assay [7] (setting [14]) it was 0.00035 µM. Besides, the “Resistance, Folds, aFGF 0.3 ng/ml + bFGF 1 ng/ml” value in assay [7] came out at 1.36 Folds. Also, in assay [7], the “Resistance, Folds, aFGF 1 ng/ml + bFGF 3 ng/ml” value is 2.36 Folds.
In the case of `Nc1nc(F)nc2c1ncn2[C@@H]1O[C@H](CO)[C@@H](O)[C@@H]1O` [Fludarabine], the IC50 in assay [7] (setting [9]) stood at 5.15 µM; in assay [7] (setting [10]), 13.5 µM; in assay [7] (setting [11]) it was 21.9 µM; in assay [7] (setting [12]), 5.2 µM; in assay [7] (setting [13]), 4.69 µM; in assay [7] (setting [14]), 5.85 µM. The IC50 in assay [8] (absence of FGF) came out at 4 µM; in assay [8] (r-aFGF (1 ng/ml) and r-bFGF (3 ng/ml)) it was 6 µM. The “Resistance, Folds, aFGF 0.3 ng/ml + bFGF 1 ng/ml” value in assay [7] is given as 2.61 Folds. Also, the “Resistance, Folds, aFGF 1 ng/ml + bFGF 3 ng/ml” value in assay [7] stood at 4.25 Folds.
